The record followed here is patent publication US20070004660A1, “Synergistic Modulation of Flt3 Kinase Using Alkylquinolines and Alkylquinazolines” (priority 2005, published 2007).

This experiment deals with T1, isolated kinase domain of the human FLT3 receptor (a.a. 571-993) (Homo sapiens, UniProt P36888).
T1 construct: human FLT3 receptor (a.a. 571-993)
T1 sequence (P36888 571-993): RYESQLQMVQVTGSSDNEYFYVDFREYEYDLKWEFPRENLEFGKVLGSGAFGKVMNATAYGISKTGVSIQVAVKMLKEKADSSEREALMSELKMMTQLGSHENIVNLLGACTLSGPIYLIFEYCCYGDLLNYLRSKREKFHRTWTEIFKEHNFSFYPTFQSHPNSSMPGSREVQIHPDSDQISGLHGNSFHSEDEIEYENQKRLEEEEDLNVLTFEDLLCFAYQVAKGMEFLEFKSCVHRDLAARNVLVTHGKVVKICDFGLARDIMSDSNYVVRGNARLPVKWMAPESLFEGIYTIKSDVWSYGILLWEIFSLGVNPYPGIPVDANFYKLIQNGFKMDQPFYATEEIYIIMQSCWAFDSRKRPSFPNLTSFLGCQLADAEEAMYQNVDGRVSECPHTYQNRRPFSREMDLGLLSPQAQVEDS
The experiment can be described thus: FLT3 fluorescence polarization kinase assay. As to conditions: 150 uM ATP; uncertainty ±10%. It is filed as biochemical.

By IC50 is commonly meant the concentration that gives 50% inhibition. A low value points to higher potency. `COc1cc2ncnc(C3CCN(C(=O)Nc4ccc(C5CCCCC5)cc4)CC3)c2cc1OC` [Example 21, 4-(6,7-Dimethoxy-quinazolin-4-yl)-piperidine-1-carboxylic acid (4-cyclohexyl-phenyl)-amide] registered an IC50 of 7 nM.

`COc1cc2ncnc(C3CCN(C(=O)Nc4ccc(CO)cc4)CC3)c2cc1OC` [Example 22, 4-(6,7-Dimethoxy-quinazolin-4-yl)-piperidine-1-carboxylic acid (4-hydroxymethyl-phenyl)-amide]: it took 4400 nM to reach half-maximal inhibition (IC50).

Consider `COc1cc2ncnc(C3CCN(C(=O)Nc4ccc5[nH]ccc5c4)CC3)c2cc1OC` [Example 23, 4-(6,7-Dimethoxy-quinazolin-4-yl)-piperidine-1-carboxylic acid (1H-indol-5-yl)-amide], for which it took 390 nM to reach half-maximal inhibition (IC50).

For `COc1cc2ncnc(C3CCN(C(=O)Nc4ccc5ncsc5c4)CC3)c2cc1OC` [Example 24, 4-(6,7-Dimethoxy-quinazolin-4-yl)-piperidine-1-carboxylic acid benzothiazol-6-ylamide], 5500 nM corresponded to half-maximal inhibition (IC50).

Compound `O=C(Nc1ccc(N2CCOCC2)cc1)N1CCC(c2ncnc3cc(N4CC[C@H](O)C4)ccc23)CC1` [Example 128, 4-[7-(3-Hydroxy-pyrrolidin-1-yl)-quinazolin-4-yl]-piperidine-1-carboxylic acid (4-morpholin-4-yl-phenyl)-amide] showed an IC50 of 25 nM.

`CC(C)Oc1ccc(NC(=O)N2CCC(c3ncnc4ccc(N5CCN(C)CC5)cc34)CC2)cc1` [Example 131, 4-[6-(4-Methyl-piperazin-1-yl)-quinazolin-4-yl]-piperidine-1-carboxylic acid (4-isopropoxy-phenyl)-amide] displayed a half-inhibitory concentration (IC50) of 436 nM.

Compound `O=C(Nc1ccc(N2CCOCC2)cc1)N1CCC(c2ncnc3cc(N4CCC[C@@H]4CO)ccc23)CC1` [Example 132, (R)-4-[7-(2-Hydroxymethyl-pyrrolidin-1-yl)-quinazolin-4-yl]-piperidine-1-carboxylic acid (4-morpholin-4-yl-phenyl)-amide] came in with a 50% inhibitory concentration (IC50) of 67 nM.

`O=C(Nc1ccc(N2CCOCC2)cc1)N1CCC(c2ncnc3cc(OCCCN4CCOCC4)ccc23)CC1` [Example 133, 4-[7-(3-Morpholin-4-yl-propoxy)-quinazolin-4-yl]-piperidine-1-carboxylic acid (4-morpholin-4-yl-phenyl)-amide] gave a half-maximal inhibitory concentration (IC50) of 2 nM.

Compound `CCN(CC)CCCOc1ccc2c(C3CCN(C(=O)Nc4ccc(N5CCOCC5)cc4)CC3)ncnc2c1` [Example 134, 4-[7-(3-Diethylamino-propoxy)-quinazolin-4-yl]-piperidine-1-carboxylic acid (4-morpholin-4-yl-phenyl)-amide] had a 50% inhibitory concentration (IC50) of 2 nM.

The compound `CN1CCN(c2ccc3c(C4CCN(C(=O)Nc5ccc(N6CCOCC6)cc5)CC4)ncnc3c2)CC1` [Example 135, 4-[7-(4-Methyl-piperazin-1-yl)-quinazolin-4-yl]-piperidine-1-carboxylic acid (4-morpholin-4-yl-phenyl)-amide] displayed a concentration for half-maximal inhibition (IC50) of 27 nM.

In turn, `CCN1CCN(c2ccc3c(C4CCN(C(=O)Nc5ccc(N6CCOCC6)cc5)CC4)ncnc3c2)CC1` [Example 136, 4-[7-(4-Ethyl-piperazin-1-yl)-quinazolin-4-yl]-piperidine-1-carboxylic acid (4-morpholin-4-yl-phenyl)-amide] had a concentration for half-maximal inhibition (IC50) of 25 nM.

The compound `O=C(Nc1ccc(N2CCOCC2)cc1)N1CCC(c2ncnc3cc(N4CCN(CCO)CC4)ccc23)CC1` [Example 137, 4-{7-[4-(2-Hydroxy-ethyl)-piperazin-1-yl]-quinazolin-4-yl}-piperidine-1-carboxylic acid (4-morpholin-4-yl-phenyl)-amide] yielded an IC50 of 12 nM.

`CN1CCCN(c2ccc3c(C4CCN(C(=O)Nc5ccc(N6CCOCC6)cc5)CC4)ncnc3c2)CC1` [Example 138, 4-[7-(4-Methyl-[1,4]diazepan-1-yl)-quinazolin-4-yl]-piperidine-1-carboxylic acid (4-morpholin-4-yl-phenyl)-amide]: it took 28 nM to reach half-maximal inhibition (IC50). Against the preceding compound, the IC50 is about 2.3-fold higher.

In turn, `O=C(Nc1ccc(N2CCOCC2)cc1)N1CCC(c2ncnc3cc(N4CCC[C@H]4CO)ccc23)CC1` [Example 139, (S)-4-[7-(2-Hydroxymethyl-pyrrolidin-1-yl)-quinazolin-4-yl]-piperidine-1-carboxylic acid (4-morpholin-4-yl-phenyl)-amide] came in with a half-maximal inhibitory concentration (IC50) of 33 nM. This IC50 and that of the compound before are within 1.5-fold of each other.

`O=C(Nc1ccc(N2CCOCC2)cc1)N1CCC(c2ncnc3cc(N4CCNCC4)ccc23)CC1` [Example 140, 4-(7-Piperazin-1-yl-quinazolin-4-yl)-piperidine-1-carboxylic acid (4-morpholin-4-yl-phenyl)-amide] returned a half-maximal inhibitory concentration (IC50) of 45 nM.

`CC(=O)N1CCN(c2ccc3c(C4CCN(C(=O)Nc5ccc(N6CCOCC6)cc5)CC4)ncnc3c2)CC1` [Example 141, 4-[7-(4-Acetyl-piperazin-1-yl)-quinazolin-4-yl]-piperidine-1-carboxylic acid (4-morpholin-4-yl-phenyl)-amide] yielded a half-maximal inhibitory concentration (IC50) of 66 nM. This IC50 and that of the compound before are within 1.5-fold of each other.

In turn, `CS(=O)(=O)N1CCN(c2ccc3c(C4CCN(C(=O)Nc5ccc(N6CCOCC6)cc5)CC4)ncnc3c2)CC1` [Example 142, 4-[7-(4-Methanesulfonyl-piperazin-1-yl)-quinazolin-4-yl]-piperidine-1-carboxylic acid (4-morpholin-4-yl-phenyl)-amide] registered a concentration for half-maximal inhibition (IC50) of 6 nM.

In the case of `CN(C)C(=O)N1CCN(c2ccc3c(C4CCN(C(=O)Nc5ccc(N6CCOCC6)cc5)CC4)ncnc3c2)CC1` [Example 143, 4-{4-[1-(4-Morpholin-4-yl-phenylcarbamoyl)-piperidin-4-yl]-quinazolin-7-yl}-piperazine-1-carboxylic acid dimethylamide], the IC50 came out at 4 nM. Compared with the last compound, the IC50 is about 1.5-fold lower.

Compound `CN(C)CC(=O)N1CCN(c2ccc3c(C4CCN(C(=O)Nc5ccc(N6CCOCC6)cc5)CC4)ncnc3c2)CC1` [Example 144, 4-{7-[4-(2-Dimethylamino-acetyl)-piperazin-1-yl]-quinazolin-4-yl}-piperidine-1-carboxylic acid (4-morpholin-4-yl-phenyl)-amide] had an IC50 of 13 nM.

Compound `O=C(Nc1ccc(N2CCOCC2)cc1)N1CCC(c2ncnc3cc(N4CCOCC4)ccc23)CC1` [Example 145, 4-(7-Morpholin-4-yl-quinazolin-4-yl)-piperidine-1-carboxylic acid (4-morpholin-4-yl-phenyl)-amide] registered an IC50 of 65 nM.

`CS(=O)(=O)CCNc1ccc2c(C3CCN(C(=O)Nc4ccc(N5CCOCC5)cc4)CC3)ncnc2c1` [Example 146, 4-[7-(2-Methanesulfonyl-ethylamino)-quinazolin-4-yl]-piperidine-1-carboxylic acid (4-morpholin-4-yl-phenyl)-amide] displayed a half-maximal inhibitory concentration (IC50) of 274 nM.

`O=C(Nc1ccc(N2CCCC2)cc1)N1CCC(c2ncnc3cc(OCCN4CCOC4=O)ccc23)CC1` [Example 147, 4-{7-[2-(2-Oxo-oxazolidin-3-yl)-ethoxy]-quinazolin-4-yl}-piperidine-1-carboxylic acid (4-pyrrolidin-1-yl-phenyl)-amide] showed an IC50 of 27 nM. This IC50 is about 10-fold lower than that of the compound before.

Take `O=C(Nc1ccc(N2CCOCC2)cc1)N1CCC(c2ncnc3cc(OCCN4CCOC4=O)ccc23)CC1` [Example 148, 4-{7-[2-(2-Oxo-oxazolidin-3-yl)-ethoxy]-quinazolin-4-yl}-piperidine-1-carboxylic acid (4-morpholin-4-yl-phenyl)-amide]: half-maximal inhibition (IC50) required 30 nM.

Take `CN(C)[C@@H]1CCN(c2ccc3c(C4CCN(C(=O)Nc5ccc(N6CCCC6)cc5)CC4)ncnc3c2)C1` [Example 149, (R)-4-[7-(3-Dimethylamino-pyrrolidin-1-yl)-quinazolin-4-yl]-piperidine-1-carboxylic acid (4-pyrrolidin-1-yl-phenyl)-amide]: half-maximal inhibition (IC50) was put at 46 nM.

Regarding `CN(C)[C@@H]1CCN(c2ccc3c(C4CCN(C(=O)Nc5ccc(N6CCOCC6)cc5)CC4)ncnc3c2)C1` [Example 150, (R)-4-[7-(3-Dimethylamino-pyrrolidin-1-yl)-quinazolin-4-yl]-piperidine-1-carboxylic acid (4-morpholin-4-yl-phenyl)-amide], the IC50 was 14 nM.

Turning to `CN1CCC[C@H]1COc1ccc2c(C3CCN(C(=O)Nc4ccc(N5CCCC5)cc4)CC3)ncnc2c1` [Example 151, (S)-4-[7-(1-Methyl-pyrrolidin-2-ylmethoxy)-quinazolin-4-yl]-piperidine-1-carboxylic acid (4-pyrrolidin-1-yl-phenyl)-amide], the 50% inhibitory concentration (IC50) was 62 nM. Compared with the last compound, the IC50 is about 4.4-fold higher.

In turn, `O=C(Nc1ccc(N2CCCC2)cc1)N1CCC(c2ncnc3cc(OCCN4CCC[C@H]4CO)ccc23)CC1` [Example 152, (S)-4-{7-[2-(2-Hydroxymethyl-pyrrolidin-1-yl)-ethoxy]-quinazolin-4-yl}-piperidine-1-carboxylic acid (4-pyrrolidin-1-yl-phenyl)-amide] gave an IC50 of 18 nM.

Consider `O=C(Nc1ccc(N2CCOCC2)cc1)N1CCC(c2ncnc3cc(OCCN4CCC[C@H]4CO)ccc23)CC1` [Example 153, (S)-4-{7-[2-(2-Hydroxymethyl-pyrrolidin-1-yl)-ethoxy]-quinazolin-4-yl}-piperidine-1-carboxylic acid (4-morpholin-4-yl-phenyl)-amide], for which half-maximal inhibition (IC50) required 22 nM.

As for `CC(=O)N1CC[C@@H](Oc2ccc3c(C4CCN(C(=O)Nc5ccc(N6CCCC6)cc5)CC4)ncnc3c2)C1` [Example 154, (R)-4-[7-(1-Acetyl-pyrrolidin-3-yloxy)-quinazolin-4-yl]-piperidine-1-carboxylic acid (4-pyrrolidin-1-yl-phenyl)-amide], the 50% inhibitory concentration (IC50) is 15 nM.
